In the METLIN SMRT retention time set (Domingo-Almenara et al. 2019):

Experiment: gradient 5% acetonitrile 3 min, to 50% in 2 min, to 85% in 15 min, held 3 min, 100 µL/min
Conditions: column: Zorbax Extend-C18 2.1 x 50 mm; eluents: water / acetonitrile, 0.1% formic acid
Outline: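 Using water and acetonitrile that each contained 0.1% formic acid, mixtures of ~100 pure standards were separated at 100 μL/min on a Zorbax Extend-C18 column (2.1 × 50 mm, 1.8 μm). The HPLC fed a quadrupole time-of-flight mass spectrometer working in positive and negative ionization mode, with dead and dwell volumes of 40 μL and 900 μL. Data were acquired over 3 months. Retention time was read from computationally picked adduct peaks after manual inspection of each.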

SMILES: CCCCC(=O)N1CCN(c2cc(C)nc(Nc3ccc(C)cc3)n2)CC1
- RP-LC retention time: 693 s

SMILES: CCNS(=O)(=O)c1cccnc1Nc1ccccc1
- RP-LC retention time: 904 s

SMILES: CCOc1ccc(C2Cn3nnc(-c4nc(-c5ccccc5Br)no4)c3CO2)cc1 (centres undefined)
- RP-LC retention time: 1230 s

SMILES: O=C(CSc1ccc(N2CCCC(C(=O)NC3CC3)C2)nn1)NCc1ccccc1Cl (centres undefined)
- RP-LC retention time: 635 s

SMILES: O=C(c1cn(-c2ccc(-c3nc(C4CC4)no3)cn2)cn1)N1CCCCCC1
- RP-LC retention time: 928 s

SMILES: O=C(COc1ccccc1[N+](=O)[O-])N(Cc1ccccc1)Cc1ccccc1
- RP-LC retention time: 1000 s

SMILES: CCCn1ccc2sc(C)c(C(=O)NCc3ccccc3OC)c2c1=O
- RP-LC retention time: 896 s

SMILES: CCOc1ccc(N2CC(NC(=O)N3CCN(C(=O)c4ccco4)CC3)CC2=O)cc1 (centres undefined)
- RP-LC retention time: 632 s

SMILES: Cc1cccc(-c2nn3c(N(C)C)cc(C)nc3c2C)c1
- RP-LC retention time: 716 s

SMILES: CCc1ccc(C(=O)NC2CCN(c3cc(-c4ccc(Cl)cc4)[nH]n3)C2)cc1 (centres undefined)
- RP-LC retention time: 879 s

SMILES: O=S(=O)(c1cc(F)cc(F)c1)N1CCC(c2noc(-c3ccc(F)cc3)n2)CC1
- RP-LC retention time: 1170 s

SMILES: O=C(NCc1ccc(Br)cc1)C1CCCN(c2nccnc2Sc2ccccc2)C1 (centres undefined)
- RP-LC retention time: 1110 s

SMILES: Cc1cccc2nnc(N3CCCC(C(=O)NCc4cccs4)C3)n12 (centres undefined)
- RP-LC retention time: 659 s

SMILES: Cc1ccc(NC(=O)C2CC(=O)N(c3n[nH]c4cccc(F)c34)C2)nc1 (centres undefined)
- RP-LC retention time: 606 s

SMILES: COc1cccc(-c2nc(-c3ccnc(N4CCOCC4)c3)no2)c1
- RP-LC retention time: 944 s

SMILES: CC(C)N1CCN(c2ncc(C(=O)NCc3ccccc3)c(N)n2)CC1
- RP-LC retention time: 595 s

SMILES: Cn1cc2c3c(cccc31)CN(C(=O)c1ccc(Br)cc1)CC2
- RP-LC retention time: 1030 s

SMILES: O=C(Cc1ccc(Cl)cc1)N1CCc2cc(-c3ccno3)ccc21
- RP-LC retention time: 1030 s

SMILES: COc1ccc(C)cc1NC(=O)c1cc(C(C)C)n2nccc2n1
- RP-LC retention time: 1270 s

SMILES: Cc1nc2cc(N3CCCC(C(=O)NCc4ccccc4)C3)cnc2nc1C (centres undefined)
- RP-LC retention time: 705 s

SMILES: COc1ccc2c(c1)[C@H]1OCCC[C@H]1C(c1ccc(C(=O)O)cc1)N2 (some centres undefined)
- RP-LC retention time: 820 s

SMILES: Cc1ccc(-c2noc(C3CCCCN3)n2)cc1 (centres undefined)
- RP-LC retention time: 630 s

SMILES: CCN1C(=O)C(C)(C)COc2ccc(NC(=O)Cc3ccc(F)cc3)cc21
- RP-LC retention time: 889 s

SMILES: CC(C)(C)C(=O)N1CCC(C(=O)Nc2nc3ccc(S(C)(=O)=O)cc3s2)CC1
- RP-LC retention time: 718 s

SMILES: C[C@H]1CCC/C=C/[C@@H]2C[C@H](O)C[C@H]2[C@H](O)/C=C/C(=O)O1
- RP-LC retention time: 782 s

SMILES: CC(C)N1CCN(C(=O)C2CCN(c3nc4ccc(-c5ccccc5)nc4s3)CC2)CC1
- RP-LC retention time: 696 s

SMILES: CCCS(=O)(=O)N1CCC2(CC1)C(=O)N(c1cccc(F)c1)C2c1ccccc1 (centres undefined)
- RP-LC retention time: 1120 s

SMILES: O=C(Cn1c(N2CCCCC2)nc2ccccc2c1=O)N1CCN(c2ccccc2)CC1
- RP-LC retention time: 976 s

SMILES: CN1CCN(CCCNC(=O)CN2C(=O)C3CCCCN3c3ccc(C(=O)N(C)C)cc32)CC1 (centres undefined)
- RP-LC retention time: 572 s

SMILES: CCN1c2ccc(C)cc2C(=O)NC12CCN(C(=O)c1cc(OC)cc(OC)c1)CC2
- RP-LC retention time: 828 s

SMILES: CC1Oc2ccc(-c3csc(NC(=O)COc4ccc(Cl)cc4)n3)cc2N(C)C1=O (centres undefined)
- RP-LC retention time: 1070 s

SMILES: Cc1nn(-c2nc(-c3ccc(F)cc3)cs2)c(C)c1CC(=O)Nc1ccc(Cl)cc1
- RP-LC retention time: 1190 s

SMILES: COc1ccc(C(=O)N2CCC3(CC2)N=C(c2ccc(Cl)cc2)NO3)cc1
- RP-LC retention time: 851 s

SMILES: COc1ccc(-c2nnc(N3CCC(C(=O)NC4CCCCCC4)CC3)o2)cc1
- RP-LC retention time: 881 s
